Data from the supplement of paper PMC11208160.

Experiment: recombinant barcode read abundance after kanamycin selection (control-corrected) (log10(CPM+1)); higher = more efficient recombination; sequences stand for … in AGTGCAGAGAAAATCGGCCAGTTTTCTCTGCCTGCAGTCCGCATGCCGT…AGATTTATGCAGCGGACTGCCTTTCTCCCAAAGTGATAAACCGGACAGTATCATGGACCGGTTTTCCCGGTAATCCGTATTTGCAAGGTTGGTTTCACT; site = the 11-nt target
Summary of the method: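 In E. coli, a pooled library matched targets to IS621 bridge RNA target-binding loops and was introduced alongside a donor plasmid. Cells went onto chloramphenicol/ampicillin/kanamycin with 0.1 mM IPTG or onto chloramphenicol/ampicillin LB agar as control, in duplicate. Recombination efficiency, from recombinant-junction barcodes as counts per million, is averaged and control-corrected. It is reported as log10(CPM+1).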
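Also: IS621 recombinase and bridge RNA in Escherichia coli cells.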

Row | Sequence | recombinant barcode read abundance (log10)
1 | CGGAGCCCTTGGGTTCTAACCTGTTGCCT (site CAAAGCCCTAG) | 0.0117
2 | CGGAGCCCTTGGGTTCTAACCTGTTGCCT (site CGGAGCCCTAG) | 1.27
3 | CGGATCCCTTGGGTTCTAACCTGTTGCCT (site CAGATCCCTAG) | 0.555
4 | CGGATCCCTTGGGTTCTAACCTGTTGCCT (site CCGATCCCTAG) | 0.159
5 | CGGATCCCTTGGGTTCTAACCTGTTGCCT (site CGGATCCCTAG) | 1.39
6 | CGGATCCCTTGGGTTCTAACCTGTTGCCT (site CTGATCCCTAG) | 0.284
7 | CGGCGTACTTGGGTTCTAACCTGTTGCCT (site CGACGTACTAG) | 0.14
8 | CGGCGTACTTGGGTTCTAACCTGTTGCCT (site CGCCGTACTAG) | 0.103
9 | CGGCGTACTTGGGTTCTAACCTGTTGCCT (site CGGCGTACTAG) | 0.959
10 | CGGCGTACTTGGGTTCTAACCTGTTGCCT (site CGTCGTACTAG) | 0.069
11 | CGGCGTCCTTGGGTTCTAACCTGTTGCCT (site CGGCGTCCTAG) | 1.24
12 | CGGCGTCCTTGGGTTCTAACCTGTTGCCT (site CGGCGTCCTCG) | 0.0739
13 | CGGCGTCCTTGGGTTCTAACCTGTTGCTA (site CGGAGTCCTTA) | 0.0265
14 | CGGCGTCCTTGGGTTCTAACCTGTTGCTA (site CGGCGTCCTTA) | 0.452
15 | CGGCGTCCTTGGGTTCTAACCTGTTGCTA (site CGGGGTCCTTA) | 0.113
16 | CGGCGTCCTTGGGTTCTAACCTGTTGCTA (site CGGTGTCCTTA) | 0.42
17 | CGGCTACCTTGGGTTCTAACCTGTTGCCT (site CAGCTACCTAG) | 0.194
18 | CGGCTACCTTGGGTTCTAACCTGTTGCCT (site CCGCTACCTAG) | 0.13
19 | CGGCTACCTTGGGTTCTAACCTGTTGCCT (site CGGCTACCTAG) | 1.96
20 | CGGCTACCTTGGGTTCTAACCTGTTGCCT (site CTGCTACCTAG) | 0.429
21 | CGGCTCACTTGGGTTCTAACCTGTTGCTA (site CGGCACACTAA) | 0.0598
22 | CGGCTCACTTGGGTTCTAACCTGTTGCTA (site CGGCTCACTTA) | 2.31

Row | Sequence | recombinant barcode read abundance (log10)
23 | CGGCTGACTTGGGTTCTAACCTGTTGCCT (site CGGCTCACTAG) | 0.446
24 | CGGCTGACTTGGGTTCTAACCTGTTGCCT (site CGGCTGACTAG) | 1.46
25 | CGGGCCTCTTGGGTTCTAACCTGTTGCTA (site CGGGCCTCTAA) | 0.185
26 | CGGGCCTCTTGGGTTCTAACCTGTTGCTA (site CGGGCCTCTCA) | 0
27 | CGGGCCTCTTGGGTTCTAACCTGTTGCTA (site CGGGCCTCTGA) | 1.27
28 | CGGGCCTCTTGGGTTCTAACCTGTTGCTA (site CGGGCCTCTTA) | 2.38
29 | CGGGCCTCTTGGGTTCTAACCTGTTGCTT (site CGGGCCTCTAA) | 2.03
30 | CGGGCCTCTTGGGTTCTAACCTGTTGCTT (site CGGGCCTCTCA) | 0.148
31 | CGGGCCTCTTGGGTTCTAACCTGTTGCTT (site CGGGCCTCTGA) | 0.469
32 | CGGGCCTCTTGGGTTCTAACCTGTTGCTT (site CGGGCCTCTTA) | 0.336
33 | CGGGCGCCTTGGGTTCTAACCTGTTGCGG (site CGGCCGACTCC) | 0.0157
34 | CGGGCGCCTTGGGTTCTAACCTGTTGCGG (site CGGGCGCCTCC) | 2.14
35 | CGGGTGCCTTGGGTTCTAACCTGTTGCCT (site CAGGTGCCTAG) | 0.379
36 | CGGGTGCCTTGGGTTCTAACCTGTTGCCT (site CCGGTGCCTAG) | 0.717
37 | CGGGTGCCTTGGGTTCTAACCTGTTGCCT (site CGGGTGCCTAG) | 1.66
38 | CGGGTGCCTTGGGTTCTAACCTGTTGCCT (site CTGGTGCCTAG) | 0.0879
39 | CGGTAACCTTGGGTTCTAACCTGTTGCCT (site AGGTAACCTAG) | 0.429
40 | CGGTAACCTTGGGTTCTAACCTGTTGCCT (site CGGTAACCTAG) | 0.761
41 | CGGTAACCTTGGGTTCTAACCTGTTGCCT (site GGGTAACCTAG) | 0.185
42 | CGGTAACCTTGGGTTCTAACCTGTTGCCT (site TGGTAACCTAG) | 0.753
43 | CGGTAGTCTTGGGTTCTAACCTGTTGCTT (site CGGTAGTCTAA) | 1.41
44 | CGGTAGTCTTGGGTTCTAACCTGTTGCTT (site CGGTAGTCTCA) | 0.0659

Row | Sequence | recombinant barcode read abundance (log10)
45 | CGGTGTCCTTGGGTTCTAACCTGTTGCTA (site CGGAGTCCTTA) | 0.0633
46 | CGGTGTCCTTGGGTTCTAACCTGTTGCTA (site CGGCGTCCTTA) | 0.586
47 | CGGTGTCCTTGGGTTCTAACCTGTTGCTA (site CGGGGTCCTTA) | 0.225
48 | CGGTGTCCTTGGGTTCTAACCTGTTGCTA (site CGGTGTCCTTA) | 1.33
49 | CGGTTTCCTTGGGTTCTAACCTGTTGCCT (site CGGTTTCCTAG) | 0.848
50 | CGGTTTCCTTGGGTTCTAACCTGTTGCCT (site CTATTTCCTAG) | 0.0218
51 | CGTAAGTCTTGGGTTCTAACCTGTTGCCT (site CGTAAGTCTAG) | 1.11
52 | CGTAAGTCTTGGGTTCTAACCTGTTGCCT (site TATAAGTCTAG) | 0.0991
53 | CGTACGACTTGGGTTCTAACCTGTTGCAT (site CGTACGACTAT) | 0.215
54 | CGTACGACTTGGGTTCTAACCTGTTGCAT (site CGTCCGACTAT) | 0.451
55 | CGTACGACTTGGGTTCTAACCTGTTGCAT (site CGTGCGACTAT) | 0.236
56 | CGTACGACTTGGGTTCTAACCTGTTGCAT (site CGTTCGACTAT) | 0.0932
57 | CGTAGGTCTTGGGTTCTAACCTGTTGCCT (site CGTAGGTCTAG) | 0.101
58 | CGTAGGTCTTGGGTTCTAACCTGTTGCCT (site CTTAGCTCTAG) | 0.0284
59 | CGTCCTCCTTGGGTTCTAACCTGTTGCAT (site CCGCCTCCTAT) | 0.00736
60 | CGTCCTCCTTGGGTTCTAACCTGTTGCAT (site CGTCCTCCTAT) | 0.089
61 | CGTCCTGCTTGGGTTCTAACCTGTTGCTT (site CGTCCTGCTAA) | 0.527
62 | CGTCCTGCTTGGGTTCTAACCTGTTGCTT (site TAGGGGACTTT) | 0.0676
63 | CGTCGCACTTGGGTTCTAACCTGTTGCCT (site CATCGCACTAG) | 0.234
64 | CGTCGCACTTGGGTTCTAACCTGTTGCCT (site CCTCGCACTAG) | 0.029
65 | CGTCGCACTTGGGTTCTAACCTGTTGCCT (site CGTCGCACTAG) | 0.0318
66 | CGTCGCACTTGGGTTCTAACCTGTTGCCT (site CTTCGCACTAG) | 0.164

Row | Sequence | recombinant barcode read abundance (log10)
67 | CGTCGTACTTGGGTTCTAACCTGTTGCCT (site CGACGTACTAG) | 0.504
68 | CGTCGTACTTGGGTTCTAACCTGTTGCCT (site CGCCGTACTAG) | 0.0657
69 | CGTCGTACTTGGGTTCTAACCTGTTGCCT (site CGGCGTACTAG) | 0.0235
70 | CGTCGTACTTGGGTTCTAACCTGTTGCCT (site CGTCGTACTAG) | 0.136
71 | CGTCTCCCTTGGGTTCTAACCTGTTGCCT (site CCTCTGCCTAG) | 0.0171
72 | CGTCTCCCTTGGGTTCTAACCTGTTGCCT (site CGTCTCCCTAG) | 0.451
73 | CGTGTAACTTGGGTTCTAACCTGTTGCCT (site CGTATATCTAG) | 0.13
74 | CGTGTAACTTGGGTTCTAACCTGTTGCCT (site CGTGTAACTAG) | 0.332
75 | CGTTCGACTTGGGTTCTAACCTGTTGCAT (site CGTACGACTAT) | 0.131
76 | CGTTCGACTTGGGTTCTAACCTGTTGCAT (site CGTCCGACTAT) | 0.0713
77 | CGTTCGACTTGGGTTCTAACCTGTTGCAT (site CGTGCGACTAT) | 0.174
78 | CGTTCGACTTGGGTTCTAACCTGTTGCAT (site CGTTCGACTAT) | 0.133
79 | CGTTCGACTTGGGTTCTAACCTGTTGCCT (site CGTTCAACTAG) | 0.0692
80 | CGTTCGACTTGGGTTCTAACCTGTTGCCT (site CGTTCCACTAG) | 0
81 | CGTTCGACTTGGGTTCTAACCTGTTGCCT (site CGTTCGACTAG) | 0.0748
82 | CGTTCGACTTGGGTTCTAACCTGTTGCCT (site CGTTCTACTAG) | 0.0286
83 | CGTTCTCCTTGGGTTCTAACCTGTTGCCT (site AGTTCTCCTAG) | 0.0567
84 | CGTTCTCCTTGGGTTCTAACCTGTTGCCT (site CGTTCTCCTAG) | 0.0201
85 | CGTTCTCCTTGGGTTCTAACCTGTTGCCT (site GGTTCTCCTAG) | 0.0547
86 | CGTTCTCCTTGGGTTCTAACCTGTTGCCT (site TGTTCTCCTAG) | 0.121
